Results taken from patent US9951055B2, “Thiazole-based inhibitors of scavenger receptor BI” (THE BROAD INSTITUTE, INC., priority 2012, dated 2018).

Key:
Stability in PBS = assay type: physicochemical; conditions: PBS (1% DMSO), over 48 hours
Protocol: The stability of the probe in PBS (1% DMSO) was measured over 48 hours. We noticed that the concentration of the probe fluctuated through the course of the assay (data not shown). We believe that this fluctuation is due to the low solubility of the probe. Thus, we decided to determine the amount of undissolved probe present in the well after it was treated with PBS for a given length of time, relative to the amount of undissolved probe at the start of the assay. The wells were centrifuged and the supernatant was removed after various time points, then acetonitrile was added to dissolve the remaining solid in the wells, and the amount of probe was quantified. […] The stability of the probe was confirmed by measuring stability in human plasma, with >99% remaining after a 5-hour incubation period. […] FIG. 5 provides a tablular summary of Known Probe (ML278) Properties Computed from Structure.

SR-BI [1] = target: T1, SR-BI (Mus musculus, UniProt Q61009); assay: Cholesterol efflux assay; assay type: cell-based; set-up: expressed in transfected cells
T1 sequence (Q61009 1-509): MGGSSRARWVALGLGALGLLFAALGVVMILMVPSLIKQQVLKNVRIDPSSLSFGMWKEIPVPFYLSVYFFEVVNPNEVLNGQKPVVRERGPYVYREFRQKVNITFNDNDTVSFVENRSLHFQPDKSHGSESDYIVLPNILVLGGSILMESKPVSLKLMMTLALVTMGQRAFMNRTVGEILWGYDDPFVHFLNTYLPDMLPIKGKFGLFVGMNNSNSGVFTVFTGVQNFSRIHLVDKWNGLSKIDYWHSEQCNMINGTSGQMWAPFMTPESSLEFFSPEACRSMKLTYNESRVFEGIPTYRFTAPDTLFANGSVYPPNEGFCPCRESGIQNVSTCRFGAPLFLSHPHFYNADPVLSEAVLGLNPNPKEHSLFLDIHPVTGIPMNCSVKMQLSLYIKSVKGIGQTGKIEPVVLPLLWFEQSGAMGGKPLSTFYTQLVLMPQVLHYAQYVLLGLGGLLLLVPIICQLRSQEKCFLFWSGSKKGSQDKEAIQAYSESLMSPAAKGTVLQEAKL
Protocol: SR-BI also mediates bidirectional flux (e.g. efflux) of unesterified or ‘free’ cholesterol (FC) between cells and HDL or other acceptors. In vivo, the greatest SR-BI-mediated selective uptake occurs in the liver and steroidogenic organs. This assay is used to determine if the compounds alter the efflux of FC to HDL.
On Day 0, 50,000 cells per well were plated in 24-well plates. On the following day, the media was removed and [^3H]cholesterol in lipoprotein-deficient media was added. On Day 1, the medium was replaced with Ham's F12 medium supplemented with 10% bovine lipoprotein deficient serum with 1 μCi/ml [1,2-^3H]cholesterol (40-60 Ci/mmol). On Day 3, the cells were washed to remove serum and incubated in Ham's F12 plus 1% fatty acid-free BSA. On Day 4, the cells were washed and pretreated with compounds for 1 hour. Subsequently, the cells were incubated for an additional 2 hours with the same concentrations of small molecules and with unlabeled HDL (final HDL concentration of 100 μg protein/ml). The medium was collected to determine released cholesterol, and the cells were lysed. The amount of [^3H]cholesterol in the medium and cells was determined using liquid scintillation counting. Total cellular [^3H]cholesterol was calculated as the sum of the radioactivity in the efflux medium plus the radioactivity in the cells and was used to calculate the [^3H]cholesterol efflux (percent of total [^3H]cholesterol released into the medium).

[2] = test system: endocytosis of transferrin; assay: Transferrin endocytosis assay; assay type: cell-based
Excerpt: Transferrin Endocytosis Assay (SA 3: AID No. 602134) This assay measures the endocytosis of an independent ligand, transferrin, which is not taken up via SR-BI but by clathrin-mediated endocytosis. This assay provides a measure of the selectivity of the inhibitors. Alexa-594-labeled transferrin is taken into the cell via endocytosis and localization of labeled transferrin was quantitated in the various intracellular compartments. […] Inhibitors of interest should act selectively at SR-BI and should have no activity in this assay. Cells were pre-treated with compound for 3 hours and then treated with the Alexa-594 transferrin reagent for 30 minutes (Catalog No. T-13343; Invitrogen) in serum-free media. Plates of cells were then placed onto ice, washed with ice cold PBS, and then fixed with 4% paraformaldehyde. In addition, the nuclei were stained with 300 nM 4′,6-diamidino-2-phenylindole (DAPI) (Catalog No. 21490; Invitrogen). The cells were imaged with the Molecular Devices IXM microscope (FIG. 22). Translocation measurements were performed using MetaExpress software and normalized for cell number.

SR-BI [3] = target: T1, SR-BI; assay: Radioactive HDL uptake assay (wild type SR-BI); assay type: cell-based, murine; set-up: expressed in transfected cells; host or cells: ldlA[mSR-BI]; (CHO ldlA7 derivative lacking the LDL receptor); conditions: [3H]cholesteryl ester HDL; read-out: average IC50, radiolabeled version of the uptake assay
Excerpt: Radioactive HDL Uptake Assay (wild type SR-BI) (SA 8: AID No. 588836)
The goal of this assay is to verify compounds that disrupt the lipid uptake from HDL particles to SR-BI scavenger receptor-expressing cells using an alternative means of labeling HDL particles and avoiding any type of fluorescence measurement. To measure this binding event, HDL particles are labeled with [^3H]cholesteryl ester and added to mSR-BI expressing cells. Cells take up the radioactive lipids from HDL via SR-BI in 2 to 3 hours. After significant uptake of the lipids from HDL, the radiolabel can be detected by liquid scintillation counting. The level of radioactivity correlates with the amount of HDL lipid uptake. The uptake of lipid from the HDL particles particles can be inhibited by the compound BLT-1 or when co-treated with an excess of unlabeled HDL. The ldlA[mSR-BI]-expressing cells utilized in the assay are from a Chinese Hamster Ovary (CHO) cell line lacking expression of the LDL receptors and overexpressing the scavenger receptor, SR-BI. Inhibitors of SR-BI and HDL lipid uptake will have a reduction in liquid scintillation counts.

[4] = listed as compound of Formula (II)

## COCC(=O)N1CCc2cc(-c3csc(NC(=O)c4cc(OC)cc(OC)c4)n3)ccc21 [Compound 137, 3,5-Dimethoxy-N-(4-(1-(2-methoxyacetyl)indolin-5-yl)thiazol-2-yl)benzamide]
Stability in PBS
  stability in PBS: stable to PBS
SR-BI [1]; during the course of the assay
  reduction of efflux of free cholesterol from cells: up to 50%
SR-BI [1]; listed as Probe 278
  inhibition of efflux of cholesterol: Inhibits efflux of cholesterol
SR-BI [1]; [4]
  inhibition of efflux of cholesterol: inhibit efflux of cholesterol
[2]; at concentrations up to 35 μM
  effect on the endocytosis of transferrin: no effect on the endocytosis of transferrin
[2]; listed as ML278
  endocytosis of transferrin: not grossly perturbing cellular membrane trafficking pathways
[2]; listed as Probe 278
  endocytosis of transferrin: did not inhibit endocytosis of transferring
[2]; [4]
  endocytosis of transferrin: does not inhibit endocytosis of transferrin
SR-BI [3]
  IC50: 1 µM
